Experimental data as given in patent US10588315B2, “Fungicidal compositions” (Syngenta Participations AG, priority 2012, dated 2020).
Several values for one entry are separate records, joined by “and”; a condition that tells them apart may be missing. Equal entries are not always repeated. Where two headings read alike, the source gives them in different places.

Key:
Type in all cases: cell-based
[1] = system: Thanatephorus cucumeris (Rhizoctonia solani); assay: Thanatephorus cucumeris (Rhizoctonia solani) / liquid culture; conditions: for inhibition at 0.1 ppm: 1.001 0.1000 ppm; for inhibition at 0.05 ppm: 1.001 0.0500 ppm
Protocol: (§1) Mycelia fragments or conidia suspensions of a fungus, prepared either freshly from liquid cultures of the fungus or from cryogenic storage, were directly mixed into nutrient broth. DMSO solutions of the test compound (max. 10 mg/ml) was diluted with 0.025% Tween20 by factor 50 and 10 μl of this solution was pipetted into a microtiter plate (96-well format). The nutrient broth containing the fungal spores/mycelia fragments was then added to give an end concentration of the tested compound. The test plates were incubated in the dark at 24° C. and 96% rh. The inhibition of fungal growth was determined photometrically and visually after 2-4 days, depending on the pathosystem, and percent antifungal activity relative to the untreated check was calculated.
Mycelia fragments of a newly grown liquid culture of the fungus were directly mixed into nutrient broth (PDB potato dextrose broth). After placing a (DMSO) solution of the test compounds into a microtiter plate (96-well format), the nutrient broth containing the fungal material was added.

[2] = system: Botryotinia fuckeliana (Botrytis cinerea); assay: Botryotinia fuckeliana (Botrytis cinerea) / liquid culture
Protocol: as §1, with “The nutrient broth containing the fungal spores/mycelia fragments was then added to give an end concentration of the tested compound.” left out
Conidia of the fungus from cryogenic storage were directly mixed into nutrient broth (Vogels broth). After placing a (DMSO) solution of test compound into a microtiter plate (96-well format), the nutrient broth containing the fungal spores was added.

[3] = system: Fusarium culmorum; assay: Fusarium culmorum / liquid culture
Protocol: as §1, with “The nutrient broth containing the fungal spores/mycelia fragments was then added to give an end concentration of the tested compound.” left out
(§2) Conidia of the fungus from cryogenic storage were directly mixed into nutrient broth (PDB potato dextrose broth). After placing a (DMSO) solution of test compound into a microtiter plate (96-well format), the nutrient broth containing the fungal spores was added.

[4] = system: Alternaria solani; assay: Alternaria solani / liquid culture; conditions: for inhibition at 0.0031 ppm: 1.001 0.0031 ppm
Protocol: as §1, §2

[5] = Thanatephorus cucumeris, B5.5, read-out: observed % activity

Structure (SMILES): CON(C(=O)c1cn(C)nc1C(F)F)C(C)Cc1c(Cl)cc(Cl)cc1Cl (centres unmarked) [Compound 1.001, 3-(difluoromethyl)-N-methoxy-1-methyl-N-[1-methyl-2-(2,4,6-trichlorophenyl)ethyl]pyrazole-4-carboxamide]
- observed % activity ([1]; 1.001 0.0250 ppm): 8%
- inhibition at 0.0031 ppm ([1]; Thanatephorus cucumeris, 1.001 0.0031 ppm, read-out: observed % activity): 5%
- inhibition at 0.0063 ppm ([1]; Thanatephorus cucumeris, 1.001 0.0063 ppm, read-out: observed % activity): 0%
- inhibition at 0.0125 ppm ([1]; Thanatephorus cucumeris, B1.4, 1.001 0.0125 ppm, read-out: observed % activity): 0%
- inhibition at 0.025 ppm ([1]; Thanatephorus cucumeris, B1.4, 1.001 0.0250 ppm, read-out: observed % activity): 6%
- inhibition at 0.1 ppm ([1]; Thanatephorus cucumeris, B1.4, read-out: observed % activity): 0%
- inhibition at 0.025 ppm ([1]; Thanatephorus cucumeris, B5.5, 1.001 0.0250 ppm, read-out: observed % activity): 13%
- inhibition at 0.05 ppm [1, 5]: 1%
- inhibition at 0.1 ppm [1, 5]: 17%
- inhibition at 0.05 ppm ([1]; Thanatephorus cucumeris, B9.3, read-out: observed % activity): 0%
- inhibition at 0.2 ppm ([1]; Thanatephorus cucumeris, B9.3, 1.001 0.2000 ppm, read-out: observed % activity): 6%
- observed % activity ([2]; 1.001 0.0031 ppm): 76%
- observed % activity ([2]; 1.001 0.0063 ppm): 69% and 63% and 85% and 64% and 88% and 74% and 87%
- observed % activity ([2]; 1.001 0.0125 ppm): 84% and 88%
- inhibition at 0.0016 ppm ([2]; Botrytis cinerea, 1.001 0.0016 ppm (Table B55), read-out: observed % activity): 38%
- inhibition at 0.0031 ppm ([2]; Botrytis cinerea, 1.001 0.0031 ppm (Table B54), read-out: observed % activity): 75%
- inhibition at 0.0031 ppm ([2]; Botrytis cinerea, 1.001 0.0031 ppm (Table B55), read-out: observed % activity): 53%
- inhibition at 0.0063 ppm ([2]; Botrytis cinerea, 1.001 0.0063 ppm (Table B54), read-out: observed % activity): 89%
- inhibition at 0.0063 ppm ([2]; Botrytis cinerea, 1.001 0.0063 ppm (Table B55), read-out: observed % activity): 66%
- inhibition at 0.0125 ppm ([2]; Botrytis cinerea, 1.001 0.0125 ppm, read-out: observed % activity): 83%
- observed % activity ([3]; 1.001 0.0125 ppm): 11% and 16% and 7% and 10% and 6%
- observed % activity ([3]; 1.001 0.0250 ppm): 24% and 28% and 34%
- observed % activity ([3]; 1.001 0.0500 ppm): 46% and 54%
- observed % activity ([3]; 1.001 0.1000 ppm): 50% and 56% and 52% and 57%
- inhibition at 0.0063 ppm ([3]; Fusarium culmorum, 1.001 0.0063 ppm, read-out: observed % activity): 9%
- inhibition at 0.05 ppm ([3]; Fusarium culmorum, 1.001 0.0500 ppm (Table B54), read-out: observed % activity): 51%
- inhibition at 0.05 ppm ([3]; Fusarium culmorum, 1.001 0.0500 ppm, read-out: observed % activity): 49%
- inhibition at 0.1 ppm ([3]; Fusarium culmorum, 1.001 0.1000 ppm (Table B54), read-out: observed % activity): 55%
- inhibition at 0.1 ppm ([3]; Fusarium culmorum, 1.001 0.1000 ppm, read-out: observed % activity): 58%
- inhibition at 0.2 ppm ([3]; Fusarium culmorum, 1.001 0.2000 ppm (Table B54), read-out: observed % activity): 60%
- inhibition at 0.2 ppm ([3]; Fusarium culmorum, 1.001 0.2000 ppm, read-out: observed % activity): 60%
- inhibition at 0.025 ppm ([3]; Fusarium culmorum, B3.3, 1.001 0.0250 ppm, read-out: observed % activity): 19%
- inhibition at 0.05 ppm ([3]; Fusarium culmorum, B3.3, 1.001 0.0500 ppm, read-out: observed % activity): 48%
- inhibition at 0.1 ppm ([3]; Fusarium culmorum, B3.3, 1.001 0.1000 ppm, read-out: observed % activity): 55%
- inhibition at 0.2 ppm ([3]; Fusarium culmorum, B3.3, 1.001 0.2000 ppm, read-out: observed % activity): 59%
- inhibition at 0.025 ppm ([3]; Fusarium culmorum, B5.3, 1.001 0.0250 ppm, read-out: observed % activity): 9%
- inhibition at 0.05 ppm ([3]; Fusarium culmorum, B5.3, 1.001 0.0500 ppm, read-out: observed % activity): 39%
- observed % activity ([4]; 1.001 0.0004 ppm): 11% and 10%
- observed % activity ([4]; 1.001 0.0008 ppm): 24%
- observed % activity ([4]; 1.001 0.0016 ppm): 40% and 46%
- inhibition at 0.0004 ppm ([4]; Alternaria solani, 1.001 0.0004 ppm, read-out: observed % activity): 9%
- inhibition at 0.0063 ppm ([4]; Alternaria solani, 1.001 0.0063 ppm, read-out: observed % activity): 75%
- inhibition at 0.0008 ppm ([4]; Alternaria solani, B1.2, 1.001 0.0008 ppm, read-out: observed % activity): 4%
- inhibition at 0.0016 ppm ([4]; Alternaria solani, B1.2, 1.001 0.0016 ppm, read-out: observed % activity): 32%
- inhibition at 0.0031 ppm ([4]; Alternaria solani, B1.2, read-out: observed % activity): 64%
- inhibition at 0.0016 ppm ([4]; Alternaria solani, B2.2, 1.001 0.0016 ppm, read-out: observed % activity): 39%
- inhibition at 0.0016 ppm ([4]; Alternaria solani, B3.2, 1.001 0.0016 ppm, read-out: observed % activity): 45%
- inhibition at 0.0031 ppm ([4]; Alternaria solani, B3.2, read-out: observed % activity): 66%
- inhibition at 0.0008 ppm ([4]; Alternaria solani, B4.2, 1.001 0.0008 ppm, read-out: observed % activity): 29%
- inhibition at 0.0016 ppm ([4]; Alternaria solani, B4.2, 1.001 0.0016 ppm, read-out: observed % activity): 47%
- inhibition at 0.0031 ppm ([4]; Alternaria solani, B4.2, read-out: observed % activity): 73%
- inhibition at 0.0008 ppm ([4]; Alternaria solani, B5.2, 1.001 0.0008 ppm, read-out: observed % activity): 3%
- inhibition at 0.0016 ppm ([4]; Alternaria solani, B5.2, 1.001 0.0016 ppm, read-out: observed % activity): 36%
- inhibition at 0.0031 ppm ([4]; Alternaria solani, B5.2, read-out: observed % activity): 75%
- inhibition at 0.0016 ppm ([4]; Alternaria solani, B6.2, 1.001 0.0016 ppm, read-out: observed % activity): 35%
- inhibition at 0.0031 ppm ([4]; Alternaria solani, B6.2, read-out: observed % activity): 71%
